Data published in patent publication US6649421B1, “Antibodies against phoshorylated VASP (vasodilator-stimulated phosphoprotein), hybridoma cells for their preparation, and their use” (Vasopharm Biotech GmbH, priority 1997, dated 2003).

Tested on: VASP phosphorylation in rat thrombocytes
Experiment: Western blot of VASP phosphorylation in rat thrombocytes
Type: cell-based
Details: 5 min incubation
Experimental: Rat thrombocytes (0.7×10^9 cell/ml) were incubated for 5 min with 100 μM sodium nitroprusside (SNP), with 10 μM prostaglandin E1(PgE1) or without either of these additions. The extracts of these rat thrombocytes were analyzed by Western blotting. […] Similar results are also obtained using mouse thrombocytes.

With CCCCC[C@H](O)/C=C/[C@H]1[C@H](O)CC(=O)[C@@H]1CCCCCCC(=O)O [PgE1, prostaglandin E1] the “Phosphorylation-dependent shift of VASP from 46 kDa to 50 kDa (serine 157 phosphorylation)” value was “also took place in rat thrombocytes” and the “Phosphorylation-dependent signal given by the 16C2 antibody (serine 239 phosphorylation)” value was “also took place in rat thrombocytes”.
